According to paper PMC12491518, “Fabrication of cytotoxic mirror image nanopores” (Nature Communications, 2025):
Where a SMILES comes first, the peptide text is derived from it. [ ]: non-standard residue; d: D form.

How the values were obtained:
[1] = Single-channel electrical recordings in planar lipid bilayers; assay type: biochemical; settings: for mean unitary conductance (G): 10 mM HEPES, pH 7.4, DpPorA at +50 mV, n = 83 insertions, DpPorA DE n = 61 insertions; for experimental conductance Gexp: Supplementary Table 1
Procedure: High-resolution electrical recordings for the single-channel characterization were conducted in planar lipid bilayers made up of 1,2-diphytanoyl-sn-glycero-3-phosphocholine (DPhPC, Avanti Polar Lipids)[23],[27],[51]. The lipid bilayer is formed across a polytetrafluoroethylene (Teflon) aperture of ~100 µm in diameter. Teflon is placed between the two sides of the Delrin bilayer chamber, partitioning it into cis and trans compartments (600 µL each). For constructing a solvent-free lipid bilayer, the aperture is made lipophilic by pre-painting both sides with hexadecane in n-pentane (1 μL, 5 mg mL^−1)[51]. After ~10 min, the chambers were filled with buffered electrolytes (1 M KCl, 10 mM HEPES, pH 7.4), and DPhPC in n-pentane (1 μL, 5 mg mL^−1) was added. After ~15 min incubation, the lipid bilayer is formed by raising and lowering the electrolyte solution, bringing the two lipid monolayers together at the aperture. The cis compartment was connected to the ground electrode, while the trans compartment was connected to the working live electrode. Subsequently, DpPorA or DpPorA DE peptides solubilized in 0.1% DDM (1 µL, 100 µg mL^−1) were consistently introduced into the cis compartment of the bilayer. The peptide pore insertion was facilitated by mixing the bilayer chamber and applying a high voltage of +200 mV. The single-channel electrical properties of the peptide pores and analyte-induced pore blockages were examined in 1 M KCl, 10 mM HEPES, pH 7.4. Ion selectivity was assessed under asymmetric salt conditions with a KCl concentration gradient across the planar lipid bilayer (0.15 M cis/1 M trans) (SI text)[27]. The ion current was acquired and amplified using an Axopatch 200B amplifier, digitized with Digidata 1550B digitizer, and recorded using the pClamp 11 acquisition software (Molecular Devices, CA). The current signals were filtered with a 2 kHz low-pass filter frequency and 10 kHz sampling frequency, or with 10 kHz low-pass filter frequency and 50 kHz sampling frequency, in line with the requirement.

proteinase K = proteinase K (Parengyodontium album, UniProt P06873); assay: Proteinase K enzyme activity on peptides (SDS-PAGE); assay type: in vitro ADME; settings: 0.5 mg/ml proteinase K, 63°C, 30 min, 10 mM phosphate buffer with 0.1% DDM pH 7.4; SDS-PAGE and bilayer insertion
Procedure: applied through Ag/AgCl electrodes with agarose salt bridges. The pore formation in the […]
The 'reverse potential' (Vm) was calculated using the Goldman-Hodgkin-Katz equation1. […]
In this equation, R is the universal gas constant (8.314 J.K-1.mol-1), T is the temperature in Kelvin (K = °C + 273.15), F is Faraday's constant (96485 C.mol-1), PK+ is the membrane permeability for K+, PCl- is the relative membrane permeability for Cl-, [K+]cis is the concentration of K+ in the cis side, [K+]trans is the concentration of K+ in the trans side, [Cl-]cis is the concentration of Cl- in the cis side and [Cl-]trans is the concentration of Cl- in the trans side.
The reverse potential for DpPorA and DpPorA DE was calculated to be +21 mV and +40 mV, […]
c) Proteinase K enzyme activity on DpPorA and DpPorA DE pores
DpPorA peptides were prepared in 10 mM phosphate buffer with 0.1% DDM (pH 7.4). A final concentration of 0.5 mg/ml of freshly prepared proteinase K solution was added to the samples.
The reaction mixtures were heated at 63°C for 30 min. The proteolysis was terminated by adding 2 mM PMSF (phenylmethyl sulfonyl fluoride).2 The reaction products were loaded on a Mini-PROTEAN® TGX™ precast gel (Bio-Rad) with Protein Standard Marker (Bio-Rad) […]

proteinase K, sequence (P06873 106-384, species assumed): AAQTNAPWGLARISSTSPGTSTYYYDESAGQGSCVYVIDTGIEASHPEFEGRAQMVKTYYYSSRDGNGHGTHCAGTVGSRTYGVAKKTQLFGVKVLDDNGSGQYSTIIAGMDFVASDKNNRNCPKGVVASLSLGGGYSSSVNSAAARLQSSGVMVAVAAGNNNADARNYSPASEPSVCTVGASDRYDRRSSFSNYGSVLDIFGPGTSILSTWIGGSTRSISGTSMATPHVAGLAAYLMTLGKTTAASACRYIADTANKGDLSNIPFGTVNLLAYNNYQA

| SMILES | mean unitary conductance (G) ([1]; 1 M KCl) [nS] | experimental conductance Gexp [1] [nS] | stability to proteinase K (proteinase K) | unitary conductance (G) of proteinase K treated peptides ([1]; 1 M KCl, after proteinase K treatment, n = 25) [nS] | pores with slightly higher current at negative than positive voltages ([1]; 1 M KCl, current rectification of n = 30 single channels) [%] |
| --- | --- | --- | --- | --- | --- |
| CC[C@@H](C)[C@@H](NC(=O)[C@H](N)CCSC)C(=O)N[C@H](CC(=O)O)C(=O)N[C@H](CCC(N)=O)C(=O)N[C@@H](C(=O)N[C@@H](C(=O)N[C@H](CCC(=O)O)C(=O)N[C@@H](C(=O)N[C@H](Cc1ccccc1)C(=O)NCC(=O)N[C@H](CCC(N)=O)C(=O)N[C@H](CC(C)C)C(=O)NCC(=O)N[C@@H](C(=O)N[C@H](Cc1ccccc1)C(=O)N[C@H](CC(C)C)C(=O)NCC(=O)NCC(=O)N[C@H](Cc1ccccc1)C(=O)NCC(=O)N[C@H](CC(N)=O)C(=O)N[C@@H](C(=O)N[C@H](Cc1ccccc1)C(=O)N[C@H](CCCCN)C(=O)NCC(=O)N[C@H](CC(C)C)C(=O)N[C@H](CCCCN)C(=O)N[C@H](C)C(=O)N[C@@H](C(=O)N[C@@H](C(=O)N[C@H](C)C(=O)N[C@@H](C(=O)N[C@@H](C(=O)N[C@@H](C(=O)N[C@H](CCCCN)C(=O)N[C@H](Cc1c[nH]c2ccccc12)C(=O)N[C@@H](C(=O)N[C@H](C)C(=O)N[C@H](C)C(=O)N[C@H](CCCCN)C(=O)O)[C@H](C)O)C(C)C)[C@H](C)CC)[C@H](C)O)[C@H](C)CC)C(C)C)[C@H](C)CC)[C@H](C)O)[C@H](C)CC)[C@H](C)O)[C@H](C)CC [DpPorA DE] (H-[dM][dI][dD][dQ][dI][dT][dE][dI][dF]G[dQ][dL]G[dT][dF][dL]GG[dF]G[dN][dI][dF][dK]G[dL][dK][dA][dV][dI][dA][dT][dI][dV][dK][dW][dT][dA][dA][dK]-OH; N-terminus and C-terminus assumed) | 3.80 ± 0.2 | 3.8 ± 0.2 | protease-stable | – | – |
| CC[C@@H](C)[C@@H](NC(=O)[C@H](N)CCSC)C(=O)N[C@H](CC(=O)O)C(=O)N[C@H](CCC(N)=O)C(=O)N[C@@H](C(=O)N[C@@H](C(=O)N[C@H](CCC(=O)O)C(=O)N[C@@H](C(=O)N[C@H](Cc1ccccc1)C(=O)NCC(=O)N[C@H](CCC(N)=O)C(=O)N[C@H](CC(C)C)C(=O)NCC(=O)N[C@@H](C(=O)N[C@H](Cc1ccccc1)C(=O)N[C@H](CC(C)C)C(=O)NCC(=O)NCC(=O)N[C@H](Cc1ccccc1)C(=O)NCC(=O)N[C@H](CC(N)=O)C(=O)N[C@@H](C(=O)N[C@H](Cc1ccccc1)C(=O)N[C@H](CCCCN)C(=O)NCC(=O)N[C@H](CC(C)C)C(=O)N[C@H](CCCCN)C(=O)N[C@H](CC(=O)O)C(=O)N[C@@H](C(=O)N[C@@H](C(=O)N[C@H](CCC(=O)O)C(=O)N[C@@H](C(=O)N[C@@H](C(=O)N[C@@H](C(=O)N[C@H](CCCCN)C(=O)N[C@H](Cc1c[nH]c2ccccc12)C(=O)N[C@@H](C(=O)N[C@H](C)C(=O)N[C@H](C)C(=O)N[C@H](CCCCN)C(=O)O)[C@H](C)O)C(C)C)[C@H](C)CC)[C@H](C)O)[C@H](C)CC)C(C)C)[C@H](C)CC)[C@H](C)O)[C@H](C)CC)[C@H](C)O)[C@H](C)CC [DpPorA] (H-[dM][dI][dD][dQ][dI][dT][dE][dI][dF]G[dQ][dL]G[dT][dF][dL]GG[dF]G[dN][dI][dF][dK]G[dL][dK][dD][dV][dI][dE][dT][dI][dV][dK][dW][dT][dA][dA][dK]-OH; N-terminus and C-terminus assumed) | 2.80 ± 0.2 | 2.8 ± 0.2 | resistant to proteinase K action | 2.8 ± 0.2 | 90 |
